According to patent US20040023314A1, “Mutant fibronectin and tumor metastasis” (Baylor College of Medicine, priority 2002, published 2004):

Test system: 1143 mel tumor cells
Experiment: Migration assay (matrigel)
Assay type: cell-based, human
Details: 1143 mel cells stably expressing the construct, 48 h
Procedure: 2.5×10^4 1143 mel tumor cells and transfected tumor cells were seeded into the upper chamber with 0.75 ml of RPMI-1640 serum-free medium in BIOCOAT […] Cells (Becton Dickinson, San Jose, Calif.). The bottom chamber contained 0.75 ml of RPMI-1640 serum-free medium (control medium) or 0.75 ml of RPMI-1640/10% FCS (complete medium). After incubation at 37° C. and 5% CO2 for 48 h, Cells in the lower chambers were fixed in 4% formaldehyde in PBS at room temperature for 20 min, stained with crystal violet, and examined and counted from four different fields under a compound microscope.
The migratory ability of these cell lines expressing wild type or mutant FN was further evaluated. […] To rule out clonal variation, similar experiments were repeated with four sets of independent tumor cell clones expressing either wild-type, mutant FN or empty vector. […] The P-value for significant difference is 0.0007 among the two comparison groups of cell clones expressing mutant FN and other cell clones expressing either wild-type FN, empty vector. There were no statistically significant differences among groups of parental 1143 mel and its derivative clones expressing wild-type or empty vector.

| Substance | migration from chamber with control medium to chamber with complete medium |
| --- | --- |
| mutant FN: mutated fibronectin with Glu to Lys substitution at position 2053 | enhanced migration ability |
| wild-type FN: wild-type fibronectin | little or no migration |
